Measured values reported in US12077503B2, “Substituted cyclic amides and their use as herbicides” (FMC CORPORATION, priority 2015, dated 2024).

Legend:
Type in all cases: in vivo
[1] = tested on: pigweed (Amaranthus retroflexus); assay: Test A postemergence; settings: postemergence, 0 to 100 scale (0 no effect, 100 complete control)
Method in brief: (§1)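 Seeds sprayed preemergence with a directed soil spray, or plants at 2 to 10 cm height and one- to two-leaf stage sprayed postemergence, with test chemicals in a non-phytotoxic solvent mixture containing surfactant, in loam soil–sand blend. Injury rated visually against untreated controls after about 10 d in greenhouse, 0 (no effect) to 100 (complete control).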

[2] = tested on: barnyardgrass (Echinochloa crus-galli); assay: Test A postemergence
Method in brief: as §1

[3] = tested on: blackgrass (Alopecurus myosuroides); assay: Test A postemergence
Method in brief: as §1

[4] = tested on: giant foxtail (Setaria faberii); assay: Test A postemergence; settings: postemergence, 0 to 100 scale (0 no effect, 100 complete control)
Method in brief: as §1

[5] = tested on: Galium (catchweed bedstraw, Galium aparine); assay: Test A postemergence; settings: postemergence, 0 to 100 scale (0 no effect, 100 complete control)
Method in brief: as §1

[6] = tested on: ryegrass, Italian (Italian ryegrass, Lolium multiflorum); assay: Test A postemergence; settings: postemergence, 0 to 100 scale (0 no effect, 100 complete control)
Method in brief: as §1

[7] = tested on: ragweed (common ragweed, Ambrosia elatior); assay: Test A postemergence; settings: postemergence, 0 to 100 scale (0 no effect, 100 complete control)
Method in brief: as §1

[8] = tested on: wheat (Triticum aestivum); assay: Test A postemergence; settings: postemergence, 0 to 100 scale (0 no effect, 100 complete control)
Method in brief: as §1

Kochia (Kochia scoparia) [9] = assay: Test A postemergence; settings: postemergence, 0 to 100 scale (0 no effect, 100 complete control)
Method in brief: as §1

corn (Zea mays) = assay: Test A postemergence
Method in brief: as §1

[10] = tested on: barnyardgrass (Echinochloa crus-galli); assay: Test C flooded paddy test; settings: Flood; for Plant response rating, Barnyardgrass: 31 g ai/ha, scale 0 to 100 (0 no effect, 100 complete control), 13 to 15 d; for Plant response rating (scale of 0 to 100), Barnyardgrass: 0 is no effect, 100 is complete control
Text: (§2) Plant species in the flooded paddy test consisted of rice (Oryza sativa), sedge, umbrella (small-flower umbrella sedge, Cyperus difformis), ducksalad (Heteranthera limosa), and barnyardgrass (Echinochloa crus-galli) grown to the 2-leaf stage for testing. At time of treatment, test pots were flooded to 3 cm above the soil surface, treated by application of test compounds directly to the paddy water, and then maintained at that water depth for the duration of the test. Treated plants and controls were maintained in a greenhouse for 13 to 15 d, after which time all species were compared to controls and visually evaluated. Plant response ratings, summarized in Table C, are based on a scale of 0 to 100 where 0 is no effect and 100 is complete control. A dash (-) response means no test result.

[11] = tested on: ducksalad (Heteranthera limosa); assay: Test C flooded paddy test; settings: Flood; for Plant response rating, Ducksalad: 31 g ai/ha, scale 0 to 100 (0 no effect, 100 complete control), 13 to 15 d; for Plant response rating (scale of 0 to 100), Ducksalad: 0 is no effect, 100 is complete control
Text: as §2

[12] = tested on: sedge, umbrella (small-flower umbrella sedge, Cyperus difformis); assay: Test C flooded paddy test; settings: Flood; for Plant response rating, Sedge, Umbrella: 31 g ai/ha, scale 0 to 100 (0 no effect, 100 complete control), 13 to 15 d; for Plant response rating (scale of 0 to 100), Sedge, Umbrella: 0 is no effect, 100 is complete control
Text: as §2

rice (Oryza sativa) = assay: Test C flooded paddy test; settings: Flood; for Plant response rating, Rice: 31 g ai/ha, scale 0 to 100 (0 no effect, 100 complete control), 13 to 15 d; for Plant response rating (scale of 0 to 100), Rice: 0 is no effect, 100 is complete control
Text: as §2

[13] = tested on: barnyardgrass (Echinochloa crus-galli); assay: Test B flooded paddy test; settings: Flood, 250 g ai/ha; 0 to 100 scale where 0 is no effect and 100 is complete control; 13 to 15 d
Method in brief: (§3)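 Plants at 2-leaf stage flooded to 3 cm above soil, with compounds applied directly to paddy water and that depth maintained. Plants kept in greenhouse 13–15 d. Visual rating versus controls on a 0 (no effect) to 100 (complete control) scale.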

rice (Oryra sativa) = assay: Test B flooded paddy test; settings: Flood, 250 g ai/ha; 0 to 100 scale where 0 is no effect and 100 is complete control; 13 to 15 d
Method in brief: as §3

[14] = tested on: ducksalad (Heteranthera limosa); assay: Test B flooded paddy test; settings: Flood, 250 g ai/ha; 0 to 100 scale where 0 is no effect and 100 is complete control; 13 to 15 d
Method in brief: as §3

[15] = tested on: sedge, umbrella (small-flower umbrella sedge, Cyperus difformis); assay: Test B flooded paddy test; settings: Flood, 250 g ai/ha; 0 to 100 scale where 0 is no effect and 100 is complete control; 13 to 15 d
Method in brief: as §3

[16] = tested on: pigweed (Amaranthus retroflexus); assay: Test A preemergence
[17] = tested on: barnyardgrass (Echinochloa crus-galli); assay: Test A preemergence
Method in brief: as §1

[18] = tested on: giant foxtail (Setaria faberii); assay: Test A preemergence
Method in brief: as §1

[19] = tested on: ryegrass, Italian (Italian ryegrass, Lolium multiflorum); assay: Test A preemergence
Method in brief: as §1

[20] = tested on: ragweed (common ragweed, Ambrosia elatior); assay: Test A preemergence
Method in brief: as §1

Kochia (Kochia scoparia) [21] = assay: Test A preemergence
Method in brief: as §1

[22] = 125 g ai/ha, visual rating after approx. 10 d
[23] = 500 g ai/ha, visual injury, approx. 10 d
[24] = 125 g ai/ha, postemergence, visual rating after approx. 10 d, 0 to 100 scale (0 no effect, 100 complete control)
[25] = 500 g ai/ha, postemergence, visual injury, 0 to 100 scale (0 no effect, 100 complete control), approx. 10 d
[26] = 125 g ai/ha, Preemergence, visual injury after approximately 10 d, 0 to 100 scale where 0 is no effect and 100 is complete control
[27] = 500 g ai/ha, preemergence, 0 to 100 scale, 0 = no effect, 100 = complete control
[28] = Postemergence, 500 g ai/ha, 0 to 100 scale where 0 is no effect and 100 is complete control

## CN1CC(c2cc(F)cc(F)c2)C(C(=O)Nc2ccccc2F)C1=O (centres unmarked) [Compound 643]
[1]; [22]
  Plant response rating, Pigweed: 0
[1]; [23]
  Plant response rating, Pigweed: 0
[2]; [24]
  Plant response rating, Barnyardgrass: 90
[2]; [25]
  Plant response rating, Barnyardgrass: 90
[3]; [24]
  Plant response rating, Blackgrass: 50
[3]; [25]
  Plant response rating, Blackgrass: 60
[4]; [22]
  Plant response rating, Foxtail, Giant: 90
[4]; [23]
  Plant response rating, Foxtail, Giant: 90
[5]; [22]
  Plant response rating, Galium: 0
[5]; [23]
  Plant response rating, Galium: 50
[6]; [22]
  Plant response rating, Ryegrass, Italian: 30
[6]; [23]
  Plant response rating, Ryegrass, Italian: 30
[7]; [22]
  Plant response rating, Ragweed: 0
[7]; [23]
  Plant response rating, Ragweed: 30
[8]; [22]
  Plant response rating, Wheat: 0
[8]; [23]
  Plant response rating, Wheat: 50
Kochia (Kochia scoparia) [9]; [22]
  Plant response rating, Kochia: 0
Kochia (Kochia scoparia) [9]; [23]
  Plant response rating, Kochia: 20
Corn (Zea mays); [24]
  Plant response rating, Corn: 0
Corn (Zea mays); [25]
  Plant response rating, Corn: 70
[10]
  Plant response rating, Barnyardgrass: 0
[10]; 62 g ai/ha
  Plant response rating (scale of 0 to 100), Barnyardgrass: 35
[10]; 125 g ai/ha
  Plant response rating (scale of 0 to 100), Barnyardgrass: 65
[10]; 250 g ai/ha
  Plant response rating (scale of 0 to 100), Barnyardgrass: 90
[11]
  Plant response rating, Ducksalad: 20
[11]; 62 g ai/ha
  Plant response rating (scale of 0 to 100), Ducksalad: 50
[11]; 125 g ai/ha
  Plant response rating (scale of 0 to 100), Ducksalad: 75
[11]; 250 g ai/ha
  Plant response rating (scale of 0 to 100), Ducksalad: 100
[12]
  Plant response rating, Sedge, Umbrella: 0
[12]; 62 g ai/ha
  Plant response rating (scale of 0 to 100), Sedge, Umbrella: 0
[12]; 125 g ai/ha
  Plant response rating (scale of 0 to 100), Sedge, Umbrella: 0
[12]; 250 g ai/ha
  Plant response rating (scale of 0 to 100), Sedge, Umbrella: 0
Rice (Oryza sativa)
  Plant response rating, Rice: 0
Rice (Oryza sativa); 62 g ai/ha
  Plant response rating (scale of 0 to 100), Rice: 0
Rice (Oryza sativa); 125 g ai/ha
  Plant response rating (scale of 0 to 100), Rice: 0
Rice (Oryza sativa); 250 g ai/ha
  Plant response rating (scale of 0 to 100), Rice: 10
[13]
  Plant response rating, Barnyardgrass: 80
Rice (Oryra sativa)
  Plant response rating, Rice: 15
[14]
  Plant response rating, Ducksalad: 100
[15]
  Plant response rating, Sedge, Umbrella: 0
[16]; [26]
  Plant response rating, Pigweed: 0
[16]; [27]
  Plant response rating, Pigweed: 20
[17]; [26]
  Plant response rating, Barnyardgrass: 90
[17]; [27]
  Plant response rating, Barnyardgrass: 90
[18]; [26]
  Plant response rating, Foxtail, Giant: 100
[18]; [27]
  Plant response rating, Foxtail, Giant: 100
[19]; [26]
  Plant response rating, Ryegrass, Italian: 20
[19]; [27]
  Plant response rating, Ryegrass, Italian: 90
[20]; [26]
  Plant response rating, Ragweed: 0
[20]; [27]
  Plant response rating, Ragweed: 20
Kochia (Kochia scoparia) [21]; [26]
  Plant response rating, Kochia: 0
Kochia (Kochia scoparia) [21]; [27]
  Plant response rating, Kochia: 40

## CN1CC(c2cccc(C(F)(F)F)c2)C(C(=O)Nc2ccccc2C(F)(F)F)C1=O (centres unmarked) [Compound 638]
[1]; [22]
  Plant response rating, Pigweed: 20
[1]; [23]
  Plant response rating, Pigweed: 50
[2]; [24]
  Plant response rating, Barnyardgrass: 90
[2]; [28]
  Plant response rating, Barnyardgrass: 90
[3]; [24]
  Plant response rating, Blackgrass: 50
[3]; [28]
  Plant response rating, Blackgrass: 70
[4]; [22]
  Plant response rating, Foxtail, Giant: 90
[4]; [23]
  Plant response rating, Foxtail, Giant: 90
[5]; [22]
  Plant response rating, Galium: 60
[5]; [23]
  Plant response rating, Galium: 60
[6]; [22]
  Plant response rating, Ryegrass, Italian: 30
[6]; [23]
  Plant response rating, Ryegrass, Italian: 40
[7]; [22]
  Plant response rating, Ragweed: 0
[7]; [23]
  Plant response rating, Ragweed: 0
[8]; [22]
  Plant response rating, Wheat: 60
[8]; [23]
  Plant response rating, Wheat: 70
Kochia (Kochia scoparia) [9]; [22]
  Plant response rating, Kochia: 20
Kochia (Kochia scoparia) [9]; [23]
  Plant response rating, Kochia: 40
Corn (Zea mays); [24]
  Plant response rating, Corn: 70
Corn (Zea mays); [28]
  Plant response rating, Corn: 80
[10]
  Plant response rating, Barnyardgrass: 45
[10]; 62 g ai/ha
  Plant response rating (scale of 0 to 100), Barnyardgrass: 55
[10]; 125 g ai/ha
  Plant response rating (scale of 0 to 100), Barnyardgrass: 60
[10]; 250 g ai/ha
  Plant response rating (scale of 0 to 100), Barnyardgrass: 75
[11]
  Plant response rating, Ducksalad: 0
[11]; 62 g ai/ha
  Plant response rating (scale of 0 to 100), Ducksalad: 40
[11]; 125 g ai/ha
  Plant response rating (scale of 0 to 100), Ducksalad: 60
[11]; 250 g ai/ha
  Plant response rating (scale of 0 to 100), Ducksalad: 75
[12]
  Plant response rating, Sedge, Umbrella: 0
[12]; 62 g ai/ha
  Plant response rating (scale of 0 to 100), Sedge, Umbrella: 0
[12]; 125 g ai/ha
  Plant response rating (scale of 0 to 100), Sedge, Umbrella: 0
[12]; 250 g ai/ha
  Plant response rating (scale of 0 to 100), Sedge, Umbrella: 0
Rice (Oryza sativa)
  Plant response rating, Rice: 20
Rice (Oryza sativa); 62 g ai/ha
  Plant response rating (scale of 0 to 100), Rice: 25
Rice (Oryza sativa); 125 g ai/ha
  Plant response rating (scale of 0 to 100), Rice: 25
Rice (Oryza sativa); 250 g ai/ha
  Plant response rating (scale of 0 to 100), Rice: 25
[13]
  Plant response rating, Barnyardgrass: 85
Rice (Oryra sativa)
  Plant response rating, Rice: 10
[14]
  Plant response rating, Ducksalad: 100
[15]
  Plant response rating, Sedge, Umbrella: 0
[16]; [26]
  Plant response rating, Pigweed: 40
[16]; [27]
  Plant response rating, Pigweed: 60
[17]; [26]
  Plant response rating, Barnyardgrass: 90
[17]; [27]
  Plant response rating, Barnyardgrass: 90
[18]; [26]
  Plant response rating, Foxtail, Giant: 90
[18]; [27]
  Plant response rating, Foxtail, Giant: 100
[19]; [26]
  Plant response rating, Ryegrass, Italian: 30
[19]; [27]
  Plant response rating, Ryegrass, Italian: 90
[20]; [26]
  Plant response rating, Ragweed: 30
[20]; [27]
  Plant response rating, Ragweed: 60
Kochia (Kochia scoparia) [21]; [26]
  Plant response rating, Kochia: 0
Kochia (Kochia scoparia) [21]; [27]
  Plant response rating, Kochia: 20
